Data as given in patent US20140272095A1, “GLUTAMIC ACID DERIVATIVES” (Givaudan S.A., priority 2011, published 2014).

Columns and labels:
Assay type in all cases: in vivo
[1] = Flavourist tasting, enhancement effect on ribonucleotides (solution F versus C, Example 3); settings: 10 ppm in 0.5% NaCl and 0.015% ribonucleotides; marked between 0 and 10; ribo reference solution C = 5.0
Experimental: (§1) Six solutions were prepared: • A a solution of 0.5% NaCl • B a solution of 0.5% NaCl and 0.03% MSG • C a solution of 0.5% NaCl and 0.015% ribonucleotides • D a solution of 0.5% NaCl and 10 ppm Example 1 compound • E a solution of 0.5% NaCl and 0.03% MSG and 10 ppm Example 1 compound • F a solution of 0.5% NaCl and 0.015% ribonucleotides and 10 ppm Example 1 compound
(§2) The samples were tasted by a group of 5-10 flavourists aged between 30 and 60. The taste of solution D is compared with that of A to determine the enhancement effect of Example 1 compound on NaCl. Similarly, solution E is compared with solution B and solution F with solution C to determine the enhancement effect of Example 1 compound on MSG and ribonucleotides respectively. The effect is marked between 0 and 10, the greater the value the greater the effect.

[2] = Flavourist tasting, enhancement effect on NaCl (solution D versus A, Example 3); settings: 10 ppm in 0.5% NaCl; marked between 0 and 10, greater value = greater effect; salt reference solution A = 0.0
Experimental: as §1, §2

[3] = Flavourist tasting of a 0.5% NaCl / 0.03% MSG solution, umami intensity versus reference solution A (Example 2); settings: 10 ppm compound in 0.5% NaCl and 0.03% MSG; average rating of 4 flavourists versus solution A; scale -3 (much lower than base) to 3 (much higher), 0 = same as base
Experimental: (§3) Two solutions were prepared: • A a solution of 0.5% NaCl and 0.03% MSG • B a solution of 0.5% NaCl and 0.03% MSG and 10 ppm Example 1 compound
(§4) The samples were tasted by a small group of flavourists (2 male, 2 female, aged between 30 and 60). The intensity of the umami and salt taste of solution B was compared with that of the reference (solution A) and rated according to the following intensity scale:
(§5) The results (average of ratings given by the flavourists) were: […]

[4] = Flavourist tasting of a 0.5% NaCl / 0.03% MSG solution, salt intensity versus reference solution A (Example 2); settings: 10 ppm compound in 0.5% NaCl and 0.03% MSG; average rating of 4 flavourists versus solution A; scale -3 (much lower than base) to 3 (much higher), 0 = same as base
Experimental: as §3, §4, §5

[5] = Flavourist tasting, enhancement effect on MSG (solution E versus B, Example 3); settings: 10 ppm in 0.5% NaCl and 0.03% MSG; marked between 0 and 10; MSG reference solution B = 5.0
Experimental: as §1, §2

[6] = Bread comparison by a panel of professional tasters (Example 5); settings: bread B: 20 g NaCl and 0.025 g compound in the flour mixture; bread A: 20 g NaCl only
Experimental: A bread flour mixture was prepared by mixing 1250 g of wheat flour, 250 g of white wheat flour and 60 g of yeast. Two salt mixtures were added to separate flour mixtures: • A 20 g of NaCl • B 20 g of NaCl and 0.025 g (+−)-1-aminocyclopentane-trans-1,3-dicarboxylic acid
Doughs were prepared by mixing the ingredients and adding 900 g of water. The doughs were allowed to rise at room temperature for 2 hours and baked at 220° C. for 45 minutes.
A panel of professional tasters compared the breads. The bread B was preferred over reference bread A.

[7] = Bouillon tasting by flavourists versus reference bouillon (Example 4); settings: 250 ppm in bouillon (32 g mix in 1 L boiling water); 4 flavourists
Experimental: A bouillon mix was prepared from 155.0 g of sodium chloride, 157.0 g of dextrose monohydrate (ex Tapioca), 0.2 g of celery oleoresin, 0.3 g of oleoresin turmeric Vegex, 0.2 g of oleoresin coriander seed, 444.8 g maltodextrin 5-8 DE, 40.0 g vegetable oil soya bean refined, 30.0 g yeast standard light, 4.0 g of onion powder, 4.0 g of garlic powder, 0.5 g of white pepper and 164.0 g of potato starch.
32 g of the well-mixed ingredients was added to 1 L of boiling water and stirred until completely dissolved.
A small group of flavourists (2 male, 2 female) compared the taste of the reference bouillon with that of a batch of the same bouillon containing 250 ppm of 2-(amino(carboxy)methyl)-cyclopropanecarboxylic acid. The flavourists agreed that the test bouillon was more umami and saltier than the reference bouillon.

| SMILES | Ribo taste [1] | NaCl Taste [2] | Intensity Taste Umami [3] | Intensity Taste Salt (NaCl) [4] | MSG taste [5] | Preference of bread B over reference bread A [6] | Salt taste of test bouillon versus reference bouillon [7] | Umami taste of test bouillon versus reference bouillon [7] |
| --- | --- | --- | --- | --- | --- | --- | --- | --- |
| N[C@]1(C(=O)O)CC[C@H](C(=O)O)C1 (racemic) [(±)-1-Aminocyclopentane-cis-1,3-dicarboxylic acid] | 5.2 | 1.3 | 0.00 | 1.00 | 6.7 |  |  |  |
| N[C@@]1(C(=O)O)CC[C@H](C(=O)O)C1 (racemic) [(±)-1-Aminocyclopentane-trans-1,3-dicarboxylic acid] | 6.3 | 2.0 | 0.00 | 1.00 | 5.3 | preferred |  |  |
| NC(C(=O)O)C1CC1C(=O)O (centres unmarked) [2-(amino(carboxy)methyl)cyclopropanecarboxylic acid] | 5.7 | 1.2 | 1.00 | 0.00 | 6.3 |  | saltier | more umami |
| CCOC(=O)C(N)C1CC1C(=O)OC.Cl (centres unmarked) [methyl 2-(1-amino-2-ethoxy-2-oxoethyl)cyclopropanecarboxylate, HCl] | 5.4 | 0.0 | 1.00 | 0.00 | 5.5 |  |  |  |
